Measurements taken from patent EP0461264A1, “ETHYNYLPHENYL DERIVATIVE, PRODUCTION THEREOF, AND REMEDY FOR DISEASES OF CIRCULATORY ORGANS CONTAINING THE SAME AS ACTIVE INGREDIENT” (KAKEN PHARMACEUTICAL CO., LTD., priority 1989, dated 1991).
Where a name gives a salt, the structure may show the parent alone. Read-outs that look alike come from different tables or passages of the source.

Assays:
[1] = tested on: spontaneously hypertensive rats; test: Activity against blood pressure (Test Example 1-1), tail-cuff measurement after oral administration; type: in vivo; conditions: Rattus norvegicus
Experimental: Male spontaneously hypertensive rats (20 to 30 weeks) were employed. After being heated in a heating box at 45 ° C for about 5 minutes, the rats were put in holders for measuring blood pressure, and blood pressure cuffs were set on the rats. After the rat's heart rate was stabilized, blood pressure of each rat was measured by a sphygmomanometer for rat (8002e, made by W + W Co., Ltd.) before the administration, and one hour, three hours and six hours after the administration. Each test compound dissolved in a 0.5 % solution of methyl cellulose was administered orally in a volume of 5 mℓ/kg.
Change of the blood pressure was calculated by the following formula.
(§1) Change rate (%) = [(Measured value after administration - Measured value before administration)/Measured value before administration] x 100

[2] = tested on: Spontaneous hypertensive male rats; test: Duration of blood pressure reduction activity (Test Example 1-2), direct aortic pressure without anesthesia; type: in vivo; conditions: oral, 3 mg/kg or 10 mg/kg, Figure 1
Experimental: Spontaneous hypertensive male rats (35 weeks) were employed. Before the day the test was carried out, rats were anesthetized with ether, and then, a polyethylene tube was inserted into an aorta abdominalis of the each rat. The other end of the polyethylene tube was led out of the rat's body, and the led polyethylene tube was connected with a pressure transducer. Blood pressure of each rat was measured by a polygraph (RM-85, made by Nihon Koden Kohgyo Co., Ltd.) without anesthesia before the administration, at intervals of one hour for eight hours after the administration and 24 hours after the administration.
Each test compound disolved in a 0.5 % solution of methyl cellulose was administered orally in a volume of 5 m í/kg and in a dose of 3 mg/kg or 10 mg/kg.
As is clear from Figure 1, blood pressure reduction activity of the compound No. 1 lasted for at least eight hours.

[3] = tested on: model of vasopressin myocardial ischemia; test: Activity against a model of vasopressin myocardial ischemia (ST wave depression, Test Example 3); type: in vivo, Donryu strain male rats; conditions: intravenous, five minutes before vasopressin 0.3 µg/kg, compared with nicardipine or nifedipine, Figure 3
Experimental: In accordance with a method of Hiramatu et al. (Japanese Journal Pharmacology 20,313 to 324,1970), Donryu strain male rats weighing 142 to 265 g were employed. Rats were anesthetized by intraperitoneally administering 60 mg/kg of pentobarbital sodium. After intravenous administration of 0.3 µg/kg of vasopressin, electrocardiogram (lead II) was recorded every one minute for five minutes. The maximum depression of ST wave in electrocardiogram was measured as an indication of myocardial ischemia. Five minutes before the administration of vasoperessin, each test compound dissolved in a mixted solution containing 20 % of propylen glycol and 5 % of glucose, was administered intravenously in a dose of 1 mt/kg.

[4] = tested on: left circumflex coronary artery and right vertebral artery blood flow; test: Activity against blood flow in anesthetized dogs (Test Example 4); type: in vivo, Beagle dogs; conditions: intravenous, compared with nicardipine or nimodipine, Figure 4
Experimental: Beagle dogs weighing 7 to 14 kg were employed, irrespective of sex. Dogs were anesthetized by intravenously administering 30 mg/kg of pentobarbital sodium (Nembutal). During the test […] of pentobarbital was injected continually into each dog. A endotracheal tube was inserted into each trachea. Incision was performed along the midline of the chest and a heart was exposed. Probes of a electromagnetic flowmeter (made by Nihon Koden Kohgyo Co., Ltd.) were set on a left circumflex coronary artery and a right vertebral artery. Each parameter was recorded simultaneously by polygragh (made by Nihon Koden Kogyo Co., Ltd.). […] Change of blood flow was calculated by the following Change rate.
as §1

angiotensin II = test: Inhibitory activity against angiotensin II, constriction response of ileum preparations (Test Example 5); type: cell-based, Hartrey male guinea pigs
Experimental: From Hartrey male guinea pigs weighing about 500 g, ileum preparations were prepared. […] Thereinto 3 x 10^-8M of angiotensin II was added and constriction response of each preparation was measured through a isometoric transducer (made by Nihon Koden Kogyo Co., Ltd.). Before the addition of angiotensin II, a compound of the present invention or saralasin was previously added into a Magnus trough. Contractive responses in both cases were compared and Inhibition rate was calculated by the following formula.
Angiotensin II Inhibition rate = (1 - Tension in case of adding test compound/Tension of control) x 100

[5] = tested on: convulsion caused by pentylenetetrazole; test: Activity against convulsion caused by pentylenetetrazole (Test Example 6); type: in vivo, Slc: ddy male mice; conditions: summary of Table 4
Experimental: Slc: ddy male mice weighing 24 to 32 g (5 weeks) were bred under an environment of 22° to 24° C room temperature and 60 % humidity for 1 week, and then the bred mice were subjected to a test. The test was carried out as the following procedure. One hour after the oral administration of a test compound, 40 mg/kg of pentylenetetrazole was administered in a caudal vein. Appearance of tonic extensive convulsion was measured as an indication, and anticonvulsive activity was examined. Each test compound was suspended in a 0.5 % solution of methyl cellulose, which was used for a control group.

[6] = Acute toxicity (Test Example 7); conditions: rat, in vivo; oral administration, death rate after 7 days; read-out: Rat LDso
Experimental: In each group 5 Slc: Wistar male rats weighing 100 g to 114 g (4 weeks) were employed. The compound No. 1 was administered orally thereto and with death rate after 7 days a value of acute toxicity was measured.
Rat LDso = 300 to 1000 mg/kg (oral administration)

[7] = tested on: atrioventricular conduction system; conditions: rat, in vivo, iv
[8] = 1 h, one hour after administration, read-out: Change rate of blood pressure 1 hr. value
[9] = 3 h, three hours after administration, read-out: Change rate of blood pressure 3 hr. value
[10] = 6 h, six hours after administration, read-out: Change rate of blood pressure 6 hr. value

With `COC(=O)C1=C(C)NC(C)=C(C(=O)OCCN(C)Cc2ccccc2)C1c1cccc([N+](=O)[O-])c1` (stereo not shown) [Nicardipine, 2-(N-benzyl-N-methylamino)ethyl, methyl 2,6-dimethyl-4-(3-nitrophenyl)-1,4-dihydropyridinedicarboxylate hydrochloride, reference compound] the change in vivo at 10 mg/kg [1, 8] was -35%, the change in vivo at 10 mg/kg [1, 9] was -3.5% and the change in vivo at 10 mg/kg [1, 10] was -2%.

`C#Cc1cccc(C2C(C(=O)OC)=C(C)NC(C)=C2C(=O)OCCN2CCN(C(c3ccccc3)c3ccccc3)CC2)c1` (stereo not shown) [Compound No. 1, 4-(3-ethynylphenyl)-3-methoxycarbonyl-2,6-dimethyl-5-(N-diphenyl-methylpiperazinylethoxycarbonyl)-1,4-dihydropyridine] gave a change in vivo at 10 mg/kg [1, 8] of -39%, a change in vivo at 10 mg/kg [1, 9] of -45.2% and a change in vivo at 10 mg/kg [1, 10] of -43.3%. For the same molecule, the “Duration of blood pressure reduction activity” value [2] was “at least eight”, the “antimyocardial ischemia activity (maximum depression of ST wave)” value [3] was “greater antimyocardial ischemia activity than that of nicardipine or nifedipine” and the “activity for increasing coronary blood flow” value [4] was “greater activity”. The “activity for increasing vertebral blood flow” value [4] was “greater activity”, the inhibition at 1 µM (angiotensin II; Cavia porcellus, Concentration 10^-6 M, 3 x 10^-8M angiotensin II, read-out: Angiotensin II Inhibition rate (%)) was 71.1% and the inhibition at 0.1 µM (angiotensin II; Cavia porcellus, Concentration 10^-7 M, 3 x 10^-8M angiotensin II, read-out: Angiotensin II Inhibition rate (%)) was 56.2%. The inhibition at 0.01 µM (angiotensin II; Cavia porcellus, Concentration 10^-8 M, 3 x 10^-8M angiotensin II, read-out: Angiotensin II Inhibition rate (%)) was 6.5%, the “Inhibitory activity against angiotension II” value (angiotensin II; compared with saralasin, positive control drug) was “the same extent of Inhibitory activity against angiotension II as that of saralasin” and the anticonvulsive activity [5] was “did not show the activity”. The LD50 at 168 h [6] was 300 to 1000 mg/kg and the “influence on artrioventricular conduction system (change rate of PQ interval)” value [7] was “less influence on artrioventricular conduction system as compared with nicardipine”.

For `C#Cc1cccc(C2C(C(=O)OC)=C(C)NC(C)=C2C(=O)OCCCN2CCN(c3ccccc3OC)CC2)c1` (stereo not shown) [compound 18, 4-(3-ethynylphenyl)-3-methoxycarbonyl-5-[3-(N-2-methoxyphenyl-piperazinyl)propoxycarbonyl]-2,6-dimethyl-1,4-dihydropyridine], the change in vivo at 10 mg/kg [1, 8] was -5.3%, the change in vivo at 10 mg/kg [1, 9] was -12.4% and the change in vivo at 10 mg/kg [1, 10] was -14.3%.

`C#Cc1cccc(C2C(C(=O)OC)=C(C)NC(C)=C2C(=O)OC(C)CN2CCN(C(c3ccccc3)c3ccccc3)CC2)c1` (stereo not shown) [compound 37, 4-(3-ethynylphenyl)-3-methoxycarbonyl-2,6-dimethyl-5-[2-(N-diphenyl-methylpiperazinyl)-1-methylethoxycarbonyl]-1,4-dihydropyridine] gave a change in vivo at 30 mg/kg [1, 8] of -38.1%, a change in vivo at 30 mg/kg [1, 9] of -44.7% and a change in vivo at 30 mg/kg [1, 10] of -48.7%.

`C#Cc1cccc(C2C(C(=O)OC)=C(C)NC(C)=C2C(=O)OCCN2CCN(C(c3ccc(F)cc3)c3ccc(F)cc3)CC2)c1` (stereo not shown) [compound 4, 4-(3-ethynylphenyl)-3-methoxycarbonyl-2,6-dimethyl-5-(N-di-4-fluorophenylmethylpiperazinylethoxycarbonyl)-1,4-dihydropyridine] gave a change in vivo at 10 mg/kg [1, 8] of -41.2%, a change in vivo at 10 mg/kg [1, 9] of -40.9% and a change in vivo at 10 mg/kg [1, 10] of -35.7%.

With `O=C1NC(=O)C(c2ccccc2)(c2ccccc2)N1` [Diphenylhidantoin, reference compound] the anticonvulsive activity [5] was “showing anticonvulsive activity”.

With `COCCOC(=O)C1=C(C)NC(C)=C(C(=O)OC(C)C)C1c1cccc([N+](=O)[O-])c1` (stereo not shown) [Nimodipine, isopropyl, 2-methoxyethyl 2,6-dimethyl-4-(3-nitrophenyl)-1,4-dihydropyridinedicarboxylate, reference compound] the change in vivo at 10 mg/kg [1, 8] was -11%, the change in vivo at 10 mg/kg [1, 9] was -11% and the change in vivo at 10 mg/kg [1, 10] was -10.2%.

`C#Cc1cccc(F)c1C1C(C(=O)OC)=C(C)NC(C)=C1C(=O)OCCN1CCN(C(c2ccccc2)c2ccccc2)CC1` (stereo not shown) [compound 2, 4-(2-ethynyl-6-fluorophenyl)-3-methoxycarbonyl-2,6-dimethyl-5-(N-diphenylmethylpiperazinylethoxycarbonyl)-1,4-dihydropyridine] gave a change in vivo at 30 mg/kg [1, 8] of -25%, a change in vivo at 30 mg/kg [1, 9] of -22.5% and a change in vivo at 30 mg/kg [1, 10] of -10%.

`C#Cc1cccc(C2C(C(=O)OC)=C(C)NC(C)=C2C(=O)OCCN2CCN(C(c3ccc(C)cc3)c3ccc(C)cc3)CC2)c1` (stereo not shown) [compound 5, 4-(3-ethynylphenyl)-3-methoxycarbonyl-2,6-dimethyl-5-(N-di-4-methyl-phenylmethylpiperazinylethoxycarbonyl)-1,4-dihydropyridine] showed a change in vivo at 10 mg/kg [1, 8] of -41.5%, a change in vivo at 10 mg/kg [1, 9] of -41.5% and a change in vivo at 10 mg/kg [1, 10] of -29.2%.

In the case of Saralasin [reference compound], the “Angiotensin II Inhibition rate (%)” value (angiotensin II; Concentration 10^-7 M, 3 x 10^-8M angiotensin II) is reported as 47.3%.

For `C#Cc1cccc(C2C(C(=O)OCCN3CCN(C(c4ccccc4)c4ccccc4)CC3)=C(C)NC(N)=C2C(=O)OCC)c1` (stereo not shown) [compound 26, 4-(3-ethynylphenyl)-3-ethoxycarbonyl-2-amino-6-methyl-5-(N-diphenylmethylpiperazinylethoxycarbonyl)-1,4-dihydropyridine], the change in vivo at 30 mg/kg [1, 8] was -38.8%, the change in vivo at 30 mg/kg [1, 9] was -43.8% and the change in vivo at 30 mg/kg [1, 10] was -41.5%.
